pEC50: −log10 of the molar value.

The assay has as its system HBV. In words: HBV infection in HepG2-NTCP cells (HBeAg AlphaLISA in supernatants). In kind it is cell-based. The following applies: Hepatitis B virus, 192 h; HBV infection of HepG2-NTCP cells; HBeAg in supernatants at day 8 post infection; read-out: Cellular EC50. In short, it runs like this:
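HepG2-NTCP A3 cells were pre-incubated 2 h with 3-fold serially diluted compounds, then infected with HBV at 2000 GE/cell with 4% PEG (0.5% DMSO final). After washing on day 1, cells stayed in 2.5% DMSO medium; supernatant HBeAg measured by AlphaLISA on day 8, EC50 versus DMSO controls.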
Broadly, the pEC50 is the negative decadic logarithm of the EC50, by convention in mol/L. With `CC(C)C[C@@H]1CN(c2ccccc2)c2cc(Cl)c(-c3ccc(OC(F)(F)F)c(C(=O)O)c3)cc2S(=O)(=O)N1C` [Example 163, (R)-5-(7-chloro-3-isobutyl-2-methyl-1,1-dioxido-5-phenyl-2,3,4,5-tetrahydrobenzo[f][1,2,5]thiadiazepin-8-yl)-2-(trifluoromethoxy)benzoic acid], the negative-log EC50 (pEC50) is above 7.00. The result for `CC(C)CCCCOc1cc2c(cc1-c1ccc(F)c(C(=O)O)c1)S(=O)(=O)N(C)[C@H](C1CCCCC1)CN2c1ccccc1` [Example 361] reads above 7.00; that for `CN1[C@H](C2CCCCC2)CN(c2ccccc2)c2cc(OCc3cncn3C)c(-c3ccc(F)c(C(=O)O)c3)cc2S1(=O)=O` [Example 390], below 6.00; that for `CN1[C@H](C2CCCCC2)CN(c2ccccc2)c2cc(F)c(-c3ccc(N)c(C(=O)O)c3)cc2S1(=O)=O` [Example 158], 6.00 to 7.00. Consider `CC(C)C[C@@H]1CN(c2ccccc2)c2cc(Cl)c(-c3ccc4[nH]ncc4c3)cc2S(=O)(=O)N1C` [Example 181], for which the pEC50 was below 6.00.

Turning to `Cc1nnc(COc2cc3c(cc2-c2ccc(F)c(C(=O)O)c2)S(=O)(=O)N(C)[C@H](CC(C)C)CN3c2ccccc2)o1` [Example 457], the negative logarithm of the EC50 (pEC50) is 6.00 to 7.00. The same measure for `CC(C)C[C@@H]1CN(c2ccccc2)c2cc(OC(C)(C)C)c(-c3ccc(Cl)c(C(=O)O)c3)cc2S(=O)(=O)N1C` [Example 440]: above 7.00; for `CN1[C@H](C2CCCCC2)CN(C2CCC2)c2cc(Cl)c(-c3ccc(F)c(C(=O)O)c3)cc2S1(=O)=O` [Example 322]: 6.00 to 7.00; for `CN1[C@H](CN2CCC(F)(F)C2)CN(c2ccccc2)c2cc(Cl)c(-c3ccc(F)c(C(=O)O)c3)cc2S1(=O)=O` [Example 111]: below 6.00. Consider `CCCCC[C@@H]1CN(c2ccccc2)c2cc(Cl)c(-c3ccc(F)c(C(=O)O)c3)cc2S(=O)(=O)N1C` [Example 70], for which the pEC50 is below 6.00. Turning to `CN1[C@H](C2CCCCC2)CN(c2ccccc2)c2cc(Cl)c(-c3ccc(C(=O)O)s3)cc2S1(=O)=O` [Example 130, (R)-5-(7-chloro-3-cyclohexyl-2-methyl-1,1-dioxido-5-phenyl-2,3,4,5-tetrahydrobenzo[f][1,2,5]thiadiazepin-8-yl)thiophene-2-carboxylic acid], the pEC50 was above 7.00.

As for `CSc1cc2c(cc1-c1cccc(C(=O)O)c1)S(=O)(=O)N1CC3(CC3)CC1CN2c1ccccc1` (stereo not shown) [Example 18, 3-(8-(methylthio)-5,5-dioxido-10-phenyl-1,10,11,11a-tetrahydro-3H-spiro[benzo[f]pyrrolo[1,2-b][1,2,5]thiadiazepine-2,1′-cyclopropan]-7-yl)benzoic acid], the negative logarithm of the EC50 (pEC50) was 6.00 to 7.00.

Turning to `CN1[C@H](CN2CCCC(F)(F)C2)CN(c2ccccc2)c2cc(Cl)c(-c3ccc(F)c(C(=O)O)c3)cc2S1(=O)=O` [Example 112], the negative logarithm of the EC50 (pEC50) is below 6.00. The result for `CCCCCOc1cc2c(cc1-c1ccc(F)c(C(=O)O)c1)S(=O)(=O)N(C)[C@H](C1CCCCC1)CN2c1ccccc1` [Example 351] reads above 7.00. The result for `CN1[C@H](C2CCCCC2)CN(c2cccc(F)c2)c2cc(Cl)c(-c3ccc(F)c(C(=O)O)c3)cc2S1(=O)=O` [Example 295] reads 6.00 to 7.00; that for `COc1cccc(Oc2cc3c(cc2-c2ccc(F)c(C(=O)O)c2)S(=O)(=O)N(C)[C@H](CC(C)C)CN3c2ccccc2)c1` [Example 427], above 7.00.

For `CC(Oc1cc2c(cc1-c1ccc(F)c(C(=O)O)c1)S(=O)(=O)N(C)[C@H](C1CCCCC1)CN2c1ccccc1)c1ccsc1` (stereo partly shown) [Example 337], the negative logarithm of the EC50 (pEC50) is above 7.00. With `CC(C)C[C@@H]1CN(c2ccccc2)c2cc(-c3cccc4ncoc34)c(-c3ccc(F)c(C(=O)O)c3)cc2S(=O)(=O)N1C` [Example 578], the pEC50 is 6.00 to 7.00.

As for `CN1[C@H](C2CCCCC2)CN(c2ccccc2)c2cc(Cl)c(-c3cccc(S(N)(=O)=O)c3)cc2S1(=O)=O` [Example 175], the negative logarithm of the EC50 (pEC50) is below 6.00.

For `CC(C)C[C@@H]1CN(c2ccccc2)c2cc(Cl)c(-c3cccc(CCC(=O)O)c3)cc2S(=O)(=O)N1C` [Example 172], the pEC50 is below 6.00.

As for `CC1CN(c2ccccc2)c2cc(C#N)c(-c3cccc(C(=O)O)c3)cc2S(=O)(=O)N1C` (stereo not shown) [Example 12, 3-(7-cyano-2,3-dimethyl-1,1-dioxido-5-phenyl-2,3,4,5-tetrahydrobenzo[f][1,2,5]thiadiazepin-8-yl)benzoic acid], the negative-log EC50 (pEC50) is below 6.00. The same measure for `CN1[C@H](C2CCCCC2)CN(c2ccccc2)c2cc(Cl)c(-c3cc(C(=O)O)ccc3Cl)cc2S1(=O)=O` [Example 151, (R)-4-chloro-3-(7-chloro-3-cyclohexyl-2-methyl-1,1-dioxido-5-phenyl-2,3,4,5-tetrahydrobenzo[f][1,2,5]thiadiazepin-8-yl)benzoic acid]: 6.00 to 7.00; for `CCCC[C@@H]1CN(c2ccccc2)c2cc(Oc3ccc(F)cc3)c(-c3ccc(F)c(C(=O)O)c3)cc2S(=O)(=O)N1C` [Example 421]: 6.00 to 7.00.

For the compound `CC(C)CC1CN(c2cccc(F)c2)c2cc(Cl)c(-c3cccc(C(=O)O)c3)cc2S(=O)(=O)N1C` (stereo not shown) [Example 329], the pEC50 is 6.00 to 7.00. The result for `CN1[C@H](C2CCCCC2)CN(c2ccccc2)c2cc(Cl)c(-c3ccc(NS(=O)(=O)CCc4ccccc4)c(C(=O)O)c3)cc2S1(=O)=O` [Example 270] reads above 7.00; that for `CN1[C@H](C2CCCC2)CN(c2ccccc2)c2cc(Cl)c(-c3ccc(Cl)c(C(=O)O)c3)cc2S1(=O)=O` [Example 67], above 7.00; that for `CCCCC1CN(c2ccccc2)c2cc(CNc3ccccc3F)c(-c3ccc(F)c(C(=O)O)c3)cc2S(=O)(=O)N1C` (stereo not shown) [Example 565], 6.00 to 7.00. The same measure for `CC(C)C[C@@H]1CN(c2ccccc2)c2cc(Cl)c(-c3cccc(/C=C/C(=O)O)c3)cc2S(=O)(=O)N1C` [Example 171]: below 6.00; for `CN1[C@H](C2CCCCC2)CNc2cc(-c3ccoc3)c(-c3ccc(F)c(C(=O)O)c3)cc2S1(=O)=O` [Example 571]: 6.00 to 7.00; for `CN1[C@H](C2CCCCC2)CN(c2cc(F)cc(F)c2)c2cc(Cl)c(-c3ccc(F)c(C(=O)O)c3)cc2S1(=O)=O` [Example 297]: above 7.00. On to `CC(C)C[C@@H]1CN(c2ccccc2)c2cc(Cl)c(-c3cccc(S(C)(=N)=O)c3)cc2S(=O)(=O)N1C` (stereo partly shown) [Example 184], for which the pEC50 is below 6.00. The result for `O=C(O)c1cccc(-c2cc3c(cc2F)N(c2ccccc2)CC2CC4(CC4)CN2S3(=O)=O)c1` (stereo not shown) [Example 5] reads below 6.00.

In the case of `CN1[C@H](C2CCCCC2)CN(c2ccccc2)c2cc(OCc3cnco3)c(-c3ccc(F)c(C(=O)O)c3)cc2S1(=O)=O` [Example 343], the pEC50 is 6.00 to 7.00.

As to `CC(C)C[C@@H]1CN(CC(C)C)c2cc(Oc3ccc(F)cc3)c(-c3ccc(F)c(C(=O)O)c3)cc2S(=O)(=O)N1C` [Example 475, (R)-2-fluoro-5-(7-(4-fluorophenoxy)-3,5-diisobutyl-2-methyl-1,1-dioxido-2,3,4,5-tetrahydrobenzo[f][1,2,5]thiadiazepin-8-yl)benzoic acid], the negative-log EC50 (pEC50) was 6.00 to 7.00. The result for `CN1[C@H](CC(C)(C)C)CN(c2ccccc2)c2cc(Cl)c(-c3ccc(F)c(C(=O)O)c3)cc2S1(=O)=O` [Example 50] reads 6.00 to 7.00. The result for `CC(C)OC[C@@H]1CN(c2ccccc2)c2cc(Cl)c(-c3ccc(F)c(C(=O)O)c3)cc2S(=O)(=O)N1C` [Example 96, (S)-5-(7-chloro-3-(isopropoxymethyl)-2-methyl-1,1-dioxido-5-phenyl-2,3,4,5-tetrahydrobenzo[f][1,2,5]thiadiazepin-8-yl)-2-fluorobenzoic acid] reads 6.00 to 7.00; that for `CC(C)CC1CN(c2ccccc2F)c2cc(Cl)c(-c3cccc(C(=O)O)c3)cc2S(=O)(=O)N1C` (stereo not shown) [Example 330], 6.00 to 7.00. The same measure for `Cc1ccc(C(=O)O)c(C)c1-c1cc2c(cc1Cl)N(c1ccccc1)C[C@@H](C1CCCCC1)N(C)S2(=O)=O` [Example 146, 3-((3R)-7-chloro-3-cyclohexyl-2-methyl-1,1-dioxido-5-phenyl-2,3,4,5-tetrahydrobenzo[f][1,2,5]thiadiazepin-8-yl)-2,4-dimethylbenzoic acid]: below 6.00; for `O=C(O)c1cc(-c2cc3c(cc2Cl)N(c2ccccc2)CC(C2CCCCC2)CS3(=O)=O)cc(F)c1F` (racemic) [Example 606, Rac-5-(7-chloro-3-cyclohexyl-1,1-dioxido-5-phenyl-2,3,4,5-tetrahydrobenzo[b][1,4]thiazepin-8-yl)-2,3-difluorobenzoic acid]: above 7.00. Take `CC(C)C[C@@H]1CN(c2ccccc2)c2cc(Cl)c(-c3cc(OC(F)(F)F)cc(C(=O)O)c3)cc2S(=O)(=O)N1C` [Example 161]: the negative-log EC50 (pEC50) was 6.00 to 7.00. With `CN1[C@H](C2CCCCC2)CN(c2ccccc2)c2cc(OCc3cccc(OC(F)(F)F)c3)c(-c3cc(F)c(C(=O)O)s3)cc2S1(=O)=O` [Example 511], the negative-log EC50 (pEC50) is 6.00 to 7.00. The same measure for `CN1[C@@H](CC2CC2)CN(c2ccccc2)c2cc(Cl)c(-c3cccc(C(=O)O)c3)cc2S1(=O)=O` [Example 41]: below 6.00. On to `CC(C)[C@@H]1CN(c2ccccc2)c2cc(Cl)c(-c3cc(F)c(F)c(C(=O)O)c3)cc2S(=O)(=O)N1C` [Example 63], for which the negative-log EC50 (pEC50) is above 7.00. The result for `CN1[C@H](C2CCCCC2)CN(c2ccccc2)c2cc(Cl)c(-c3cc(NC(=O)OC4CC4)c(C(=O)O)s3)cc2S1(=O)=O` [Example 249] reads above 7.00; that for `CC(C)[C@@H]1CN(c2ccccc2)c2cc(Cl)c(-c3ccc(F)c(C(=O)O)c3)cc2S(=O)(=O)N1C` [Example 61, (R)-5-(7-chloro-3-isopropyl-2-methyl-1,1-dioxido-5-phenyl-2,3,4,5-tetrahydrobenzo[f][1,2,5]thiadiazepin-8-yl)-2-fluorobenzoic acid], 6.00 to 7.00. The result for `CN1[C@H](C2CCCCC2)CN(c2ccccc2)c2cc(Cl)c(-c3cc(C(=O)O)n(C)n3)cc2S1(=O)=O` [Example 134] reads above 7.00.
